From US10941152B2, “Pyrazole compounds as modulators of FSHR and uses thereof” (TOCOPHERX, INC., priority 2014, dated 2021)

Assays:
FSHR = biological target: T1, FSHR (Homo sapiens, UniProt P23945); experiment: EC50 of cyclic AMP production in CHO FSHR cells + EC20 FSH (Assay A); format: cell-based; settings: cyclic AMP production in CHO FSHR cells + EC20 FSH (0.265 pM), HTRF
T1 construct: expressed in transfected cells; host or cells: CHO (Cho-FSHR-LUC-1-1-43)
T1 sequence (P23945 18-695): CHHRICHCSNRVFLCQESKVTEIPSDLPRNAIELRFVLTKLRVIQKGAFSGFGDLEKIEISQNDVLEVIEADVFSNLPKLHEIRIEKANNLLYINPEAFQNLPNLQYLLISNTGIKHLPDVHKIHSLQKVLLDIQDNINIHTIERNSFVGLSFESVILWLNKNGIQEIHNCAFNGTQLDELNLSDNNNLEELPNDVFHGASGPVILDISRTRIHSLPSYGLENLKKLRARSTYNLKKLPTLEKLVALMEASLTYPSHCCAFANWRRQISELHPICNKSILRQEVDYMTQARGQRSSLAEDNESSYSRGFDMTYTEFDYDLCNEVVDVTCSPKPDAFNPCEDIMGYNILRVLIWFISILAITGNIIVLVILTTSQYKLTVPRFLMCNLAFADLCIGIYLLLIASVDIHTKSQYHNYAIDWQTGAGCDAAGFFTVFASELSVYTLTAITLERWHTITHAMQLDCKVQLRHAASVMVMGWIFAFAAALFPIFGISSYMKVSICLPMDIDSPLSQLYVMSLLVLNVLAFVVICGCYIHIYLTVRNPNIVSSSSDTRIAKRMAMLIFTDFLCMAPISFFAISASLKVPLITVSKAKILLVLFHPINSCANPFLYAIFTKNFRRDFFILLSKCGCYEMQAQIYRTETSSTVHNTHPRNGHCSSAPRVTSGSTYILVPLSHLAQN
Summary of the method: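 cAMP was detected by HTRF as the 665/620 nm ratio. The CHO-FSHR cells had first been exposed for 1 h at 37° C to test compound together with 0.265 pM FSH (EC20) and 200 μM IBMX. Responses are given as percent of the FSH standard maximum.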

[1] = biological target: T2, follicle-stimulating hormone (FSH) receptor (Rattus norvegicus, UniProt P20395); experiment: Rat granulosa EC50 FSH (Assay B); format: cell-based
T2 construct: endogenous in cells; host or cells: rat granulosa cells
T2 sequence (P20395 18-692): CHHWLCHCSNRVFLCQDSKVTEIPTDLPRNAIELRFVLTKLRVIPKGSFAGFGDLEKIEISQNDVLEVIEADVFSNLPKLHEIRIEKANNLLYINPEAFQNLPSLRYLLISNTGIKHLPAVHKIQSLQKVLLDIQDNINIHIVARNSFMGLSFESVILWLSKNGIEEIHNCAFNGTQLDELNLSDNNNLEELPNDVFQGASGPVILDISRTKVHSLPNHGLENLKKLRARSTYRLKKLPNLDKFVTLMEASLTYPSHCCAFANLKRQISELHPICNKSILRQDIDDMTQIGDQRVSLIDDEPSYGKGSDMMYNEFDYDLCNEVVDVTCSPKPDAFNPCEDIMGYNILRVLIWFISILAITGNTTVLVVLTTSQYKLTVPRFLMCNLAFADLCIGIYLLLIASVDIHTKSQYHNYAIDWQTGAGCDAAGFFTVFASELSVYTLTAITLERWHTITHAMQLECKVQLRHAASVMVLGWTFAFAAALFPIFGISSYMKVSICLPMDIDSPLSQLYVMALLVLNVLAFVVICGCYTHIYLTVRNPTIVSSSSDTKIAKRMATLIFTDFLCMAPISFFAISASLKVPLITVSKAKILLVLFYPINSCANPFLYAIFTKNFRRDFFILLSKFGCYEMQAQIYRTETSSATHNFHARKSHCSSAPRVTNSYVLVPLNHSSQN
Procedure: Example 25. Rat granulosa EC50 FSH (Assay B)
The assay was performed pursuant to the teaching of Yanofsky et al. (2006) Allosteric activation of the follicle-stimulating hormone (FSH) receptor by selective, nonpeptide agonists (JBC 281(19): 13226-13233, which is incorporated by reference in the disclosure of the invention).

Row | SMILES | EC50 (FSHR) [nM] | EC50 [1] [nM]
1 | COc1cc(OC)cc(-n2nc(C(=O)N(C)C(C)(C)CCO)c3c2-c2cc(-c4ccn(C)n4)c(OC)cc2OC3)c1 [Compound 134, 1-(3,5-dimethoxyphenyl)-N-(4-hydroxy-2-methylbutan-2-yl)-7-methoxy-N-methyl-8-(1-methyl-1H-pyrazol-3-yl)-1,4-dihydrochromeno[4,3-c]pyrazole-3-carboxamide] | 10 to 100 | > 500
2 | COc1cc2c(cc1-c1cncc(C(N)=O)c1)-c1c(c(C(=O)N3CC[S+]([O-])CC3(C)C)nn1-c1cc(F)cc(F)c1)CO2 (stereo not drawn) [Compound 163] | < 10 | 101 to 500
3 | COc1cc2c(cc1-c1cnn(CC(N)=O)c1)-c1c(c(C(=O)N3CC[S+]([O-])CC3(C)C)nn1-c1cc(F)cc(F)c1)CO2 (stereo not drawn) [Compound 71] | 10 to 100 | 101 to 500
4 | COc1cc2c(cc1-c1ccn(C)n1)-c1c(c(C(=O)N3CCOCC3(C)C)nn1-c1cc(F)cc(F)c1)CO2 [Compound 51, (1-(3,5-difluorophenyl)-7-methoxy-8-(1-methyl-1H-pyrazol-3-yl)-1,4-dihydrochromeno[4,3-c]pyrazol-3-yl)(3,3-dimethylmorpholino)methanone] | 10 to 100 | 101 to 500
5 | COc1cc2c(cc1-c1nc[nH]n1)-c1c(c(C(=O)N(C)C(C)(C)C)nn1-c1ccsc1)CO2 [Compound 207, N-tert-butyl-7-methoxy-N-methyl-1-(thiophen-3-yl)-8-(1H-1,2,4-triazol-3-yl)-1,4-dihydrochromeno[4,3-c]pyrazole-3-carboxamide] | < 10 | 101 to 500
6 | COc1cc2c(cc1-c1cncc(C#N)c1)-c1c(c(C(=O)N(C)C(C)(C)C#N)nn1-c1cc(F)cc(F)c1)CO2 [Compound 105, N-(2-cyanopropan-2-yl)-8-(5-cyanopyridin-3-yl)-1-(3,5-difluorophenyl)-7-methoxy-N-methyl-1,4-dihydrochromeno[4,3-c]pyrazole-3-carboxamide] | < 10 | 10 to 100
7 | COc1cc2c(cc1-c1ccn(C)n1)-c1c(c(C(=O)N3C[C@H](O)[C@H](O)CC3(C)C)nn1-c1ccsc1)CO2 [Compound 130, ((4R,5S)-4,5-dihydroxy-2,2-dimethylpiperidin-1-yl)(7-methoxy-8-(1-methyl-1H-pyrazol-3-yl)-1-(thiophen-3-yl)-1,4-dihydrochromeno[4,3-c]pyrazol-3-yl)methanone] | 10 to 100 | 101 to 500
8 | COc1cc2c(cc1-c1ccn(C)n1)-c1c(c(C(=O)N3CC[S+]([O-])CC3(C)C)nn1-c1ccsc1)CO2 (stereo not drawn) [Compound 56, (1-(thiophen-3-yl)-7-methoxy-8-(1-methyl-1H-pyrazol-3-yl)-1,4-dihydrochromeno[4,3-c]pyrazol-3-yl)(S-oxo-3,3-dimethylthiomorpholino)methanone] | 10 to 100 | 101 to 500
9 | COCC1(CC(C)C)CCCN1C(=O)c1nn(-c2ccsc2)c2c1COc1cc(OC)c(-c3ccn(C)n3)cc1-2 (stereo not drawn) [Compound 127, (2-isobutyl-2-(methoxymethyl)pyrrolidin-1-yl)(7-methoxy-8-(1-methyl-1H-pyrazol-3-yl)-1-(thiophen-3-yl)-1,4-dihydrochromeno[4,3-c]pyrazole-3-yl)methanone] | 10 to 100 | 101 to 500
10 | COc1cc2c(cc1-c1cnn(CC(=O)O)c1)-c1c(c(C(=O)N3CCOCC3(C)C)nn1-c1cc(F)cc(F)c1)CO2 [Compound 88, 2-(4-(1-(3,5-difluorophenyl)-3-(3,3-dimethylmorpholine-4-carbonyl)-7-methoxy-1,4-dihydrochromeno[4,3-c]pyrazol-8-yl)-1H-pyrazol-1-yl)acetic acid] | 10 to 100 | 101 to 500

Other lines, results leading:

Row | EC50 (FSHR) [nM] | EC50 [1] [nM] | SMILES
11 | < 10 | 10 to 100 | COc1cc2c(cc1-c1c(C)nn(CC(N)=O)c1C)-c1c(c(C(=O)N(C)C(C)(C)C)nn1-c1cc(Cl)cc(Cl)c1)CO2 [Compound 139, 8-(1-(2-amino-2-oxoethyl)-3,5-dimethyl-1H-pyrazol-4-yl)-N-tert-butyl-1-(3,5-dichlorophenyl)-7-methoxy-N-methyl-1,4-dihydrochromeno[4,3-c]pyrazole-3-carboxamide]
12 | < 10 | 10 to 100 | COc1cc2c(cc1-c1cccnc1F)-c1c(c(C(=O)N(C)C(C)(C)C)nn1-c1cc(Cl)cc(Cl)c1)CO2 [Compound 3, N-tert-butyl-1-(3,5-dichlorophenyl)-8-(2-fluoropyridin-3-yl)-7-methoxy-N-methyl-1,4-dihydrochromeno[4,3-c]pyrazole-3-carboxamide]
13 | < 10 | 10 to 100 | COc1cc2c(cc1-c1cnccc1C(N)=O)-c1c(c(C(=O)N(C)C(C)(C)C)nn1-c1cc(Cl)cc(Cl)c1)CO2 [Compound 153]
14 | < 10 | 10 to 100 | COc1cc2c(cc1-c1cccnc1F)-c1c(c(C(=O)N(CCO)C(C)(C)C)nn1-c1cc(Cl)cc(Cl)c1)CO2 [Compound 123, N-tert-butyl-1-(3,5-dichlorophenyl)-8-(2-fluoropyridin-3-yl)-N-(2-hydroxyethyl)-7-methoxy-1,4-dihydrochromeno[4,3-c]pyrazole-3-carboxamide]
15 | < 10 | 101 to 500 | COc1cc2c(cc1-c1cncc(C(N)=O)c1)-c1c(c(C(=O)N3CCOCC3(C)C)nn1-c1cc(Cl)cc(Cl)c1)CO2 [Compound 169]
16 | 10 to 100 | 101 to 500 | COc1cc2c(cc1-c1cnn(CC(O)CO)c1)-c1c(c(C(=O)N(C)C(C)(C)C)nn1-c1cc(Cl)cc(Cl)c1)CO2 (single isomer, unassigned) [Compound 191, N-tert-butyl-1-(3,5-dichlorophenyl)-8-(1-(2,3-dihydroxypropyl)-1H-pyrazol-4-yl)-7-methoxy-N-methyl-1,4-dihydrochromeno[4,3-c]pyrazole-3-carboxamide]
17 | < 10 | 101 to 500 | COc1cc2c(cc1-c1cccnc1Cl)-c1c(c(C(=O)N(C)C(C)(C)C)nn1-c1ccsc1)CO2 [Compound 60, N-tert-butyl-8-(2-chloropyridin-3-yl)-7-methoxy-N-methyl-1-(thiophen-3-yl)-1,4-dihydrochromeno[4,3-c]pyrazole-3-carboxamide]
18 | 10 to 100 | 101 to 500 | COc1cc2c(cc1-c1cc(C(N)=O)ncn1)-c1c(c(C(=O)N(C)C(C)(C)C)nn1-c1cc(Cl)cc(Cl)c1)CO2 [Compound 114, N-tert-butyl-8-(6-carbamoylpyrimidin-4-yl)-1-(3,5-dichlorophenyl)-7-methoxy-N-methyl-1,4-dihydrochromeno[4,3-c]pyrazole-3-carboxamide]
19 | 10 to 100 | 101 to 500 | COc1cc(Cl)cc(-n2nc(C(=O)N(C)C(C)(C)C)c3c2-c2cc(-c4ccn(C)n4)c(OC)cc2OC3)c1 [Compound 32, N-tert-butyl-1-(3-chloro-5-methoxyphenyl)-7-methoxy-N-methyl-8-(1-methyl-1H-pyrazol-3-yl)-1,4-dihydrochromeno[4,3-c]pyrazole-3-carboxamide]
20 | 10 to 100 | 101 to 500 | COc1cc2c(cc1-c1ccn(C)n1)-c1c(c(C(=O)N(C)C(C)(C)C)nn1-c1cc(Cl)cc(C(F)(F)F)c1)CO2 [Compound 64, N-tert-butyl-1-(3-chloro-5-(trifluoromethyl)phenyl)-7-methoxy-N-methyl-8-(1-methyl-1H-pyrazol-3-yl)-1,4-dihydrochromeno[4,3-c]pyrazole-3-carboxamide]
21 | 10 to 100 | 101 to 500 | COc1cc2c(cc1-c1cccc(C#N)c1)-c1c(c(C(=O)N(C)C(C)(C)C)nn1-c1cc(Cl)cc(Cl)c1)CO2 [Compound 18, N-tert-butyl-8-(3-cyanophenyl)-1-(3,5-dichlorophenyl)-7-methoxy-N-methyl-1,4-dihydrochromeno[4,3-c]pyrazole-3-carboxamide]
